Measurements reported in ChEMBL document CHEMBL4196033, “Potent hydrazone derivatives targeting esophageal cancer cells” (Eur J Med Chem, 2018).
Calls of active or inactive are those of the source. The rule behind the calls is not given here.

How the values were obtained:
[1] = tested on: ECa-109 cell line; assay: Induction of apoptosis in human EC109 cells assessed as increase in cleaved caspase-9 protein expression after 48 hrs by Western blot analysis; format: functional, cell-based
[2] = tested on: EC9706; assay: Induction of apoptosis in human EC9706 cells assessed as early apoptotic cells at 8 uM after 48 hrs in presence of caspase inhibitor Z-VAD-FMK by Annexin V-FITC/propidium iodide staining based flow cytometry (reference value: 0.33%); format: functional
[3] = tested on: ECa-109 cell line; assay: Effect on Prxs-2 protein expression in human EC109 cells at 2 to 8 uM after 48 hrs by Western blot analysis; format: functional, cell-based
[4] = tested on: ECa-109 cell line; assay: Induction of apoptosis in human EC109 cells assessed as early apoptotic cells at 2 uM after 48 hrs by Annexin V-FITC/propidium iodide staining based flow cytometry (reference value: 0.43 to 1.15%); format: functional
[5] = tested on: ECa-109 cell line; assay: Induction of ROS generation in human EC109 cells at 2 uM after 24 hrs by DCFH-DA staining based flow cytometry relative to control; format: functional
[6] = tested on: ECa-109 cell line; assay: Induction of apoptosis in human EC109 cells after 48 hrs by Annexin V-FITC/propidium iodide staining based flow cytometry; format: functional, cell-based
[7] = tested on: EC9706; assay: Induction of apoptosis in human EC9706 cells assessed as live cells at 4 uM after 48 hrs by Annexin V-FITC/propidium iodide staining based flow cytometry (reference value: 85.5 to 96%); format: functional
[8] = tested on: EC9706; assay: Induction of apoptosis in human EC9706 cells assessed as increase in Bax protein expression after 48 hrs by Western blot analysis; format: functional, cell-based
[9] = tested on: EC9706; assay: Induction of apoptosis in human EC9706 cells assessed as early apoptotic cells at 4 uM after 48 hrs by Annexin V-FITC/propidium iodide staining based flow cytometry (reference value: 0.68 to 1.58%); format: functional
[10] = tested on: ECa-109 cell line; assay: Upregulation of p27 protein expression in human EC109 cells at 8 uM after 24 to 48 hrs by Western blot analysis relative to control; format: functional

Q: Which results are given for `COc1ccc(/C=N/NC(=O)c2cccc(S(=O)(=O)N3CCOCC3)c2)c(O)c1`?
A: Activity [1]: Dose-dependent effect; Activity [2]: 16.4%; Activity [3]: Active; Activity [4]: 13.3%; fold change (FC) [5]: 1.81; Activity [6]: Dose-dependent effect; Activity [7]: 34.2 - 61.2%; Activity [8]: Dose-dependent effect; Activity [9]: 10.8 - 29.9%; fold change (FC) [10]: 1.9
